Tests used:
[1] = tested on: ECHCG; assay: Pre-emergence action against ECHCG, 1280 g/ha; type: in vivo, Echinochloa crus-galli; settings: visual scoring after about 3 weeks vs untreated controls, 100% = plants have died, 0% = like control plants; for pest or weed control at 1280 g/ha: Echinochloa crus-galli, 504 h
Outline: (§1)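 Sandy loam pots, seeds covered with soil; aqueous WP/EC spray on covering soil, 0.5% additive, 600 L/ha. Greenhouse growth, good conditions. Readout: visual % activity at ~3 weeks (0% = like control, 100% = dead).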

[2] = tested on: POAAN; assay: Pre-emergence action against POAAN, 1280 g/ha; type: in vivo, Poa annua; settings: visual scoring after about 3 weeks vs untreated controls, 100% = plants have died, 0% = like control plants; for pest or weed control at 1280 g/ha: Poa annua, 504 h
Outline: as §1

[3] = tested on: SETVI; assay: Pre-emergence action against SETVI, 1280 g/ha; type: in vivo, Setaria viridis; settings: visual scoring after about 3 weeks vs untreated controls, 100% = plants have died, 0% = like control plants; for pest or weed control at 1280 g/ha: Setaria viridis, 504 h
Outline: as §1

[4] = tested on: AMARE; assay: Pre-emergence action against AMARE, 1280 g/ha; type: in vivo, Amaranthus retroflexus; settings: scored visually after about 3 weeks vs untreated controls (100% = plants have died); for pest or weed control at 1280 g/ha: Amaranthus retroflexus, 504 h
Outline: as §1

[5] = tested on: MATIN; assay: Pre-emergence action against MATIN, 1280 g/ha; type: in vivo, Tripleurospermum inodorum (Matricaria inodora); settings: scored visually after about 3 weeks vs untreated controls (100% = plants have died); for pest or weed control at 1280 g/ha: Tripleurospermum inodorum, 504 h
Outline: as §1

[6] = tested on: STEME; assay: Pre-emergence action against STEME, 1280 g/ha; type: in vivo, Stellaria media; settings: scored visually after about 3 weeks vs untreated controls (100% = plants have died); for pest or weed control at 1280 g/ha: Stellaria media, 504 h
Outline: as §1

[7] = tested on: ALOMY; assay: Pre-emergence action at 320 g/ha against ALOMY; type: in vivo, Alopecurus myosuroides; settings: scored visually after about 3 weeks vs untreated controls (100% = plants have died); for pest or weed control at 320 g/ha: Alopecurus myosuroides, 504 h
Outline: (§2)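 WP/EC formulations applied pre-emergence to covering soil, water rate 600 l/ha, 0.5% additive. Greenhouse, ~3 weeks. Visual % damage vs untreated (0–100%).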

[8] = tested on: AVEFA; assay: Pre-emergence action at 320 g/ha against AVEFA; type: in vivo; settings: visual scoring after about 3 weeks vs untreated controls; for pest or weed control at 320 g/ha: Avena fatua, 504 h
Outline: as §2

[9] = tested on: DIGSA; assay: Pre-emergence action at 320 g/ha against DIGSA; type: in vivo, Digitaria sanguinalis; settings: visual scoring after about 3 weeks vs untreated controls; for pest or weed control at 320 g/ha: Digitaria sanguinalis, 504 h
Outline: as §2

[10] = tested on: SETVI; assay: Pre-emergence action at 320 g/ha against SETVI; type: in vivo, Setaria viridis; settings: visual scoring after about 3 weeks vs untreated controls; for pest or weed control at 320 g/ha: Setaria viridis, 504 h
Outline: as §2

[11] = tested on: AMARE; assay: Pre-emergence action at 320 g/ha against AMARE; type: in vivo, Amaranthus retroflexus; settings: visual scoring after about 3 weeks vs untreated controls; for pest or weed control at 320 g/ha: Amaranthus retroflexus, 504 h
Outline: as §2

[12] = tested on: POLCO; assay: Pre-emergence action at 320 g/ha against POLCO; type: in vivo, Fallopia convolvulus (Polygonum convolvulus); settings: visual scoring after about 3 weeks vs untreated controls; for pest or weed control at 320 g/ha: Fallopia convolvulus, 504 h
Outline: as §2

[13] = tested on: ECHCG; assay: Post-emergence action against ECHCG, 1.28 kg/ha; type: in vivo, Echinochloa crus-galli; settings: dosage 1280 g/ha, visual rating about 3 weeks after treatment vs untreated controls; for pest or weed control at 1280 g/ha: Echinochloa crus-galli, 504 h
Outline: (§3)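 Herbicidal action is estimated by eye after about three weeks under optimum greenhouse conditions, on a 0–100% scale against untreated plants. Compounds are applied post-emergence to one-leaf-stage weeds as aqueous WP or EC preparations containing 0.5% additive, sprayed at 600 L/ha.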

[14] = tested on: POAAN; assay: Post-emergence action against POAAN, 1.28 kg/ha; type: in vivo, Poa annua; settings: dosage 1280 g/ha, visual rating about 3 weeks after treatment vs untreated controls; for pest or weed control at 1280 g/ha: Poa annua, 504 h
Outline: as §3

SMILES | pest or weed control at 1280 g/ha [1] [%] | pest or weed control at 1280 g/ha [2] [%] | pest or weed control at 1280 g/ha [3] [%] | pest or weed control at 1280 g/ha [4] [%] | pest or weed control at 1280 g/ha [5] [%] | pest or weed control at 1280 g/ha [6] [%] | Pre-emergence action against ECHCG [1] [%] | Pre-emergence action against POAAN [2] [%] | Pre-emergence action against SETVI [3] [%] | Pre-emergence action against AMARE [4] [%] | Pre-emergence action against MATIN [5] [%] | Pre-emergence action against STEME [6] [%] | Pre-emergence action at 320 g/ha against ALOMY in % [7] [%] | Pre-emergence action against AVEFA in % [8] [%] | Pre-emergence action against DIGSA in % [9] [%] | Pre-emergence action against SETVI in % [10] [%] | Pre-emergence action against AMARE in % [11] [%] | Pre-emergence action against POLCO in % [12] [%] | Post-emergence action against ECHCG [13] [%] | Post-emergence action against POAAN [14] [%] | other results
O=C(O)COc1nn(-c2ccccc2F)c(-c2ccc(F)nc2)c1Br [VII-003, {[4-Bromo-1-(2-fluorophenyl)-5-(6-fluoropyridin-3-yl)-1H-pyrazol-3-yl]oxy}acetic acid] | 100 | 100 | 100 | 100 | 100 | 100 |  |  |  |  |  |  |  |  |  |  |  |  |  |  | pest or weed control at 320 g/ha [7]: 100%; pest or weed control at 320 g/ha [8]: 90%; pest or weed control at 320 g/ha [9]: 100%; pest or weed control at 320 g/ha [10]: 100%; pest or weed control at 320 g/ha [11]: 100%; pest or weed control at 320 g/ha [12]: 90%; pest or weed control at 1280 g/ha [13]: 90%; pest or weed control at 1280 g/ha [14]: 100%
COC(=O)[C@@H](C)Oc1nn(-c2ccccc2)c(-c2cccnc2)c1Br [VII-008] |  |  |  |  |  |  | 100 | 100 | 100 | 100 | 100 | 100 | 100 | 80 | 90 | 100 | 100 | 100 | 100 | 100 | 
CCOC(=O)COc1nn(-c2ccccc2F)c(-c2ccc(F)nc2)c1C(F)(F)F [VII-010] |  |  |  |  |  |  | 100 | 100 | 100 | 100 | 90 | 100 | 100 | 90 | 100 | 100 | 100 | 90 | 100 | 100 | 
CCOC(=O)COc1nn(-c2ccccc2F)c(-c2ccc(F)nc2)c1Br [VII-012, Ethyl {[4-bromo-1-(2-fluorophenyl)-5-(6-fluoropyridin-3-yl)-1H-pyrazol-3-yl]oxy}acetate] | 100 | 100 | 100 | 100 | 100 | 90 |  |  |  |  |  |  |  |  |  |  |  |  |  |  | pest or weed control at 320 g/ha [7]: 100%; pest or weed control at 320 g/ha [8]: 90%; pest or weed control at 320 g/ha [9]: 100%; pest or weed control at 320 g/ha [10]: 100%; pest or weed control at 320 g/ha [11]: 100%; pest or weed control at 320 g/ha [12]: 90%; pest or weed control at 1280 g/ha [13]: 100%; pest or weed control at 1280 g/ha [14]: 100%
COC(=O)C(C)Oc1nn(-c2ccccc2)c(-c2ccc(F)nc2)c1Br (stereo not shown) [VII-014] |  |  |  |  |  |  | 90 | 100 | 100 | 100 | 90 | 100 | 100 | 90 | 100 | 100 | 90 | 90 | 90 | 100 | 

— US12180187B2, “1-phenyl-5-azinylpyrazolyl-3-oxyalkyl acids and their use for controlling unwanted plant growth” (BAYER AKTIENGESELLSCHAFT, priority 2019, dated 2024)
